Test results published in patent EP3060679B1, “METHOD AND KIT FOR DETERMINING WHETHER A SUBJECT SHOWS AN IMMUNE RESPONSE” (BioNTech Diagnostics GmbH, priority 2013, dated 2015).
Like-named read-outs stand apart in the source and are kept apart here.

Legend:
tumor = system: tumor
Method: (§1) Before the vaccination therapy is started, the method described herein above is applied to establish HLA- and TCR-specific gene expression profiles of the patient's PBMCs. Furthermore the tumor size/mass is determined by CT scan. During therapy, the patients received 1 mg of the HLA-B^∗0702-restricted peptide […] every 2 weeks for 6 doses.
(§2) In addition HLA-expression profiles are established from tumor biopsies that are taken from the patients 12 weeks after the last vaccination.

HLA-B∗0702 = system: HLA-B∗0702
Source text: as §2
For further investigation new biopsies of the tumors of both patients are taken for analysis of tumor antigen expression and the establishment of a HLA expression profile using the method of the present invention.

patient's PBMCs = settings: 6 weeks after vaccination vs before treatment
Method: The above described method is used for monitoring an immune response in 2 melanoma patients that were treated by an immunotherapy based on a peptide vaccine consisting of the HLA-B^∗0702-restricted T cell epitope […] (aa97-111) (SEQ ID NO: 40) of the tumor-associated antigen NY-ESO 1. In order to evaluate whether or not patients would benefit from a corresponding peptide vaccination therapy, HLA genotyping is done to test for HLA-B^∗0702 and tumor biopsies are examined for high NY-ESO 1 expression.
as §1, §2

Sequence: ATPMEAELARRSLAQ
- tumor mass in the CT scan (tumor; both patients, along with the T cell response seen 6 weeks after vaccination): loss of the tumor mass
- tumor in CT scan (tumor; patient 1, 12 weeks after vaccination): continuous tumor regression
- tumor in CT scan (tumor; patient 2, 12 weeks after vaccination): growing again
- HLA expression profile of tumor cells (HLA-B∗0702; patient 1, tumor biopsy 12 weeks after the last vaccination): normal HLA expression profile
- expression of HLA-B∗0702 in tumor cells (HLA-B∗0702; patient 2, tumor biopsy 12 weeks after the last vaccination): completely lost
- expression of isotypes of HLA class I and II (HLA-B∗0702; patients' PBMCs, all time points): expressed at normal levels
- increased expression of the TCR-β sequence V4.1 D2 J2.1 C2 (patient's PBMCs; patient 1, PBMCs): 9.6 fold
- increased expression of the TCR-α sequence V1.1 J23 C (patient's PBMCs; patient 1, PBMCs, 1 mg peptide every 2 weeks for 6 doses): 10.3 fold
- increased expression of the TCR-α sequence V1.1 J23 C (patient's PBMCs; patient 2, PBMCs): 9.3 fold
- increased expression of the TCR-β sequence V4.1 D2 J2.1 C2 (patient's PBMCs; patient 2, PBMCs): 10.6 fold
